# Measured values from patent US8377974B2 (Millennium Pharmaceuticals, Inc., priority 2004, dated 2013).
# Target: T1, human plasma protein factor Xa (Homo sapiens, UniProt P00742)
# T1 construct: measure proteolytic activity of the enzyme (factor Xa); purchased Haematologic Technologies (Essex Junction, Vt.); host or cells: human plasma
# Experiment: Factor Xa IC50 determination: cleavage of paranitroanilide substrate S-2765 in 96-well plates
# Assay type: biochemical
# Settings: fXa 1 nM, S-2765 100 μM, Tris buffered saline pH 7.4, room temperature
# Summary of the method: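 Human plasma factor Xa (1 nM) preincubated 5 min at room temperature with inhibitor (0.01 nM–10 μM final) in Tris-buffered saline pH 7.4 with 5 mM CaCl2, 0.1% BSA, 5% DMSO. S-2765 at 100 μM final; hydrolysis at 405 nm over 2 min. IC50 from 4-parameter fit of initial velocities.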
# T1 sequence (P00742 235-488 limits assumed): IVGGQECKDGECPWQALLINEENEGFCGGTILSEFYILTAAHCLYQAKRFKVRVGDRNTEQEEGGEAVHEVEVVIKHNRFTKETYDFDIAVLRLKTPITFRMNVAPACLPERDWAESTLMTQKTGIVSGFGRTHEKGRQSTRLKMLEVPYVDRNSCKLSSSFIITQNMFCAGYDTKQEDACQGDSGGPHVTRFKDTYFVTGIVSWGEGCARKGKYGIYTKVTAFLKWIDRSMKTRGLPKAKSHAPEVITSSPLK
# T1 sequence (P00742 41-179 partner limits assumed): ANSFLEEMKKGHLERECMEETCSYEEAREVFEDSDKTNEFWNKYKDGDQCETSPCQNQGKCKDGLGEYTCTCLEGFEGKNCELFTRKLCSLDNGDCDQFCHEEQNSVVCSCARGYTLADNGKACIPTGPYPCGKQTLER
row,SMILES,IC50 [nM]
1,"COc1ccc(-c2cc(CNC(=O)c3ccc(Cl)s3)on2)cc1 [Example 152, 5-Chloro-thiophene-2-carboxylic acid [3-(4-methoxy-phenyl)-isoxazol-5-ylmethyl]-amide]",≥ 500
2,"O=C(NCc1cc(-c2ccc(Cl)cc2)no1)c1ccc(Cl)s1 [Example 155, 5-Chloro-thiophene-2-carboxylic acid [3-(4-chloro-phenyl)-isoxazol-5-ylmethyl]-amide]",≥ 500
3,"Nc1ccc(-c2cc(CNC(=O)c3ccc(Cl)s3)on2)cc1 [Example 161, 5-Chloro-thiophene-2-carboxylic acid [3-(4-amino-phenyl)-isoxazol-5-ylmethyl]-amide]",≤ 100
4,"CCN1CCC(C2=NOC(CNC(=O)c3ccc(Cl)s3)C2)CC1 (stereo not drawn) [Example 169, 5-Chloro-thiophene-2-carboxylic acid [3-(1-ethyl-piperidin-4-yl)-4,5-dihydro-isoxazol-5-ylmethyl]-amide]",≥ 500
5,"O=C(NCC1CC(C2CCN(Cc3ccccc3)CC2)=NO1)c1ccc(Cl)s1 (stereo not drawn) [Example 170, 5-Chloro-thiophene-2-carboxylic acid [3-(1-benzyl-piperidin-4-yl)-4,5-dihydro-isoxazol-5-ylmethyl]-amide]",≥ 500
6,"CC(C)N1CCC(C2=NOC(CNC(=O)c3ccc(Cl)s3)C2)CC1 (stereo not drawn) [Example 171, 5-Chloro-thiophene-2-carboxylic acid [3-(1-isopropyl-piperidin-4-yl)-4,5-dihydro-isoxazol-5-ylmethyl]-amide]",≥ 500
7,"N=C(N)N1CCC(C2=NOC(CNC(=O)c3ccc(Cl)s3)C2)CC1 (stereo not drawn) [Example 172, 5-Chloro-thiophene-2-carboxylic acid [3-(1-carbamimidoyl-piperidin-4-yl)-4,5-dihydro-isoxazol-5-ylmethyl]-amide]",≥ 500
8,"CC(=N)N1CCC(C2=NOC(CNC(=O)c3ccc(Cl)s3)C2)CC1 (stereo not drawn) [Example 173, 5-Chloro-thiophene-2-carboxylic acid {3-[1-(1-imino-ethyl)-piperidin-4-yl]-4,5-dihydro-isoxazol-5-ylmethyl}-amide]",≥ 500
9,"N=C(c1ccccn1)N1CCC(C2=NOC(CNC(=O)c3ccc(Cl)s3)C2)CC1 (stereo not drawn) [Example 175, 5-Chloro-thiophene-2-carboxylic acid {3-[1-(imino-pyridin-2-yl-methyl)-piperidin-4-yl]-4,5-dihydro-isoxazol-5-ylmethyl}-amide]",≥ 500
10,"O=C(NCc1cc(C2CCNCC2)no1)c1ccc(Cl)s1 [Example 176, 5-Chloro-thiophene-2-carboxylic acid (3-piperidin-4-yl-isoxazol-5-ylmethyl)-amide]",≥ 500
11,"CCN1CCC(c2cc(CNC(=O)c3ccc(Cl)s3)on2)CC1 [Example 177, 5-Chloro-thiophene-2-carboxylic acid [3-(1-ethyl-piperidin-4-yl)-isoxazol-5-ylmethyl]-amide]",≥ 500
12,"O=C(NCc1cc(C2CCN(Cc3ccccc3)CC2)no1)c1ccc(Cl)s1 [Example 178, 5-Chloro-thiophene-2-carboxylic acid [3-(1-benzyl-piperidin-4-yl)-isoxazol-5-ylmethyl]-amide]",≥ 500
13,"N=C(N)N1CCC(c2cc(CNC(=O)c3ccc(Cl)s3)on2)CC1 [Example 179, 5-Chloro-thiophene-2-carboxylic acid [3-(1-carbamimidoyl-piperidin-4-yl)-isoxazol-5-ylmethyl]-amide]",≥ 500
14,"CC(=N)N1CCC(c2cc(CNC(=O)c3ccc(Cl)s3)on2)CC1 [Example 180, 5-Chloro-thiophene-2-carboxylic acid {3-[1-(1-imino-ethyl)-piperidin-4-yl]-isoxazol-5-ylmethyl}-amide]",≥ 500
15,"N=C(c1ccccc1)N1CCC(c2cc(CNC(=O)c3ccc(Cl)s3)on2)CC1 [Example 181, 5-Chloro-thiophene-2-carboxylic acid {3-[1-(imino-phenyl-methyl)-piperidin-4-yl]-isoxazol-5-ylmethyl}-amide]",≥ 500

# The remaining lines, values ahead:
row,IC50 [nM],SMILES
1,≥ 500,"COc1ccc(C2=NOC(C)(CNC(=O)c3ccc(Cl)s3)C2)cc1 (stereo not drawn) [Example 151, 5-Chloro-thiophene-2-carboxylic acid [3-(4-methoxy-phenyl)-5-methyl-4,5-dihydro-isoxazol-5-ylmethyl]-amide]"
2,≥ 500,"O=C(NCC1CC(c2ccc(Cl)cc2)=NO1)c1ccc(Cl)s1 (stereo not drawn) [Example 153, 5-Chloro-thiophene-2-carboxylic acid [3-(4-chloro-phenyl)-4,5-dihydro-isoxazol-5-ylmethyl]-amide]"
3,≥ 500,"CC1(CNC(=O)c2ccc(Cl)s2)CC(c2ccc(Cl)cc2)=NO1 (stereo not drawn) [Example 154, 5-Chloro-thiophene-2-carboxylic acid [3-(4-chloro-phenyl)-5-methyl-4,5-dihydro-isoxazol-5-ylmethyl]-amide]"
4,≥ 500,"COC(=O)c1ccc(C2=NOC(CNC(=O)c3ccc(Cl)s3)C2)cc1 (stereo not drawn) [Example 156, 4-(5-{[(5-Chloro-thiophene-2-carbonyl)-amino]-methyl}-4,5-dihydro-isoxazol-3-yl)-benzoic acid methyl ester]"
5,≥ 500,"COC(=O)c1ccc(-c2cc(CNC(=O)c3ccc(Cl)s3)on2)cc1 [Example 157, 4-(5-{[(5-Chloro-thiophene-2-carbonyl)-amino]-methyl}-isoxazol-3-yl)-benzoic acid methyl ester]"
6,≥ 500,"O=C(O)c1ccc(C2=NOC(CNC(=O)c3ccc(Cl)s3)C2)cc1 (stereo not drawn) [Example 158, 4-(5-{[(5-Chloro-thiophene-2-carbonyl)-amino]-methyl}-4,5-dihydro-isoxazol-3-yl)-benzoic acid]"
7,≥ 500,"O=C(O)c1ccc(-c2cc(CNC(=O)c3ccc(Cl)s3)on2)cc1 [Example 159, 4-(5-{[(5-Chloro-thiophene-2-carbonyl)-amino]-methyl}-isoxazol-3-yl)-benzoic acid]"
8,≥ 500,"Nc1ccc(C2=NOC(CNC(=O)c3ccc(Cl)s3)C2)cc1 (stereo not drawn) [Example 160, 5-Chloro-thiophene-2-carboxylic acid [3-(4-amino-phenyl)-4,5-dihydro-isoxazol-5-ylmethyl]-amide]"
9,≤ 100,"CN(C)C(=O)c1ccc(C2=NOC(CNC(=O)c3ccc(Cl)s3)C2)cc1 (stereo not drawn) [Example 162, 5-Chloro-thiophene-2-carboxylic acid [3-(4-dimethylcarbamoyl-phenyl)-4,5-dihydro-isoxazol-5-ylmethyl]-amide]"
10,≤ 100,"O=C(NCC1CC(c2ccc(C(=O)N3CCC3)cc2)=NO1)c1ccc(Cl)s1 (stereo not drawn) [Example 163, 5-Chloro-thiophene-2-carboxylic acid {3-[4-(azetidine-1-carbonyl)-phenyl]-4,5-dihydro-isoxazol-5-ylmethyl}-amide]"
11,≤ 100,"O=C(NCC1CC(c2ccc(C(=O)N3CCCC3)cc2)=NO1)c1ccc(Cl)s1 (stereo not drawn) [Example 164, 5-Chloro-thiophene-2-carboxylic acid {3-[4-(pyrrolidine-1-carbonyl)-phenyl]-4,5-dihydro-isoxazol-5-ylmethyl}-amide]"
12,100 to 500,"CC1CCCN1C(=O)c1ccc(C2=NOC(CNC(=O)c3ccc(Cl)s3)C2)cc1 (stereo not drawn) [Example 165, 5-Chloro-thiophene-2-carboxylic acid {3-[4-(2-methyl-pyrrolidine-1-carbonyl)-phenyl]-4,5-dihydro-isoxazol-5-ylmethyl}-amide]"
13,≤ 100,"CCN(CC)CCN(C)C(=O)c1ccc(C2=NOC(CNC(=O)c3ccc(Cl)s3)C2)cc1 (stereo not drawn) [Example 166, 5-Chloro-thiophene-2-carboxylic acid (3-{4-[(2-diethylamino-ethyl)-methyl-carbamoyl]-phenyl}-4,5-dihydro-isoxazol-5-ylmethyl)-amide]"
14,100 to 500,"O=C(NCc1cc(-c2ccc(C(=O)N3CCCC3)cc2)no1)c1ccc(Cl)s1 [Example 167, 5-Chloro-thiophene-2-carboxylic acid {3-[4-(pyrrolidine-1-carbonyl)-phenyl]-isoxazol-5-ylmethyl}-amide]"
15,≥ 500,"CCN(CC)CCN(C)C(=O)c1ccc(-c2cc(CNC(=O)c3ccc(Cl)s3)on2)cc1 [Example 168, 5-Chloro-thiophene-2-carboxylic acid (3-{4-[(2-diethylamino-ethyl)-methyl-carbamoyl]-phenyl}-isoxazol-5-ylmethyl)-amide]"
16,≥ 500,"N=C(c1ccccc1)N1CCC(C2=NOC(CNC(=O)c3ccc(Cl)s3)C2)CC1 (stereo not drawn) [Example 174, 5-Chloro-thiophene-2-carboxylic acid {3-[1-(imino-phenyl-methyl)-piperidin-4-yl]-4,5-dihydro-isoxazol-5-ylmethyl}-amide]"
17,≥ 500,"O=Cc1ccccc1-c1ccc(C2=NOC(CNC(=O)c3ccc(Cl)s3)C2)cc1 (stereo not drawn) [Example 183, 5-Chloro-thiophene-2-carboxylic acid [3-(2′-formyl-biphenyl-4-yl)-4,5-dihydro-isoxazol-5-ylmethyl]-amide]"
18,≥ 500,"O=C(NCC1CC(c2ccc(-c3ccccc3Cl)cc2)=NO1)c1ccc(Cl)s1 (stereo not drawn) [Example 184, 5-Chloro-thiophene-2-carboxylic acid [3-(2′-chloro-biphenyl-4-yl)-4,5-dihydro-isoxazol-5-ylmethyl]-amide]"
19,≥ 500,"CSc1ccccc1-c1ccc(C2=NOC(CNC(=O)c3ccc(Cl)s3)C2)cc1 (stereo not drawn) [Example 185, 5-Chloro-thiophene-2-carboxylic acid [3-(2′-methylsulfanyl-biphenyl-4-yl)-4,5-dihydro-isoxazol-5-ylmethyl]-amide]"
20,100 to 500,"Nc1ccccc1-c1ccc(C2=NOC(CNC(=O)c3ccc(Cl)s3)C2)cc1 (stereo not drawn) [Example 186, 5-Chloro-thiophene-2-carboxylic acid [3-(2′-amino-biphenyl-4-yl)-4,5-dihydro-isoxazol-5-ylmethyl]-amide]"
21,100 to 500,"O=C(NCC1CC(c2ccc(-c3ccccc3C(F)(F)F)cc2)=NO1)c1ccc(Cl)s1 (stereo not drawn) [Example 187, 5-Chloro-thiophene-2-carboxylic acid [3-(2′-trifluoromethyl-biphenyl-4-yl)-4,5-dihydro-isoxazol-5-ylmethyl]-amide]"
